Laboratory results reported in PubChem BioAssay AID264 (DTP/NCI, 2004).
Values joined by “and” are separate entries in the source; they are usually repeats but may differ in a detail not shown here. Identical values can stand only once. Inconclusive results are not listed.

System: nude mice, LX-1 lung xenograft intrarenal, tumor weight T/C
Assay: NCI In Vivo Anticancer Drug Screen. Data for tumor model Human Lung LX-1 Xenograft (intrarenal inoculation) in NU/NU Swiss (nude) mice
Conditions: endpoint: mean tumor weight change, higher = larger tumour
Procedure, shortened: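 Antitumor effect is expressed as a ratio: the mean tumor measurement of the drug-treated group relative to that of the vehicle-dosed control group.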

[1] = dose: 200.0 mg/kg/injection, schedule: Q04DX003 (sc), vehicle: saline with Tween-80
[2] = dose: 150.0 mg/kg/injection, schedule: Q04DX003 (sc), vehicle: saline with Tween-80
[3] = dose: 300.0 mg/kg/injection, schedule: Q04DX003 (sc), vehicle: saline with Tween-80
[4] = dose: 600.0 mg/kg/injection, schedule: Q04DX003 (sc), vehicle: saline with Tween-80
[5] = dose: 1200.0 mg/kg/injection, schedule: Q04DX003 (sc), vehicle: saline with Tween-80
[6] = dose: 300.0 mg/kg/injection, schedule: Q04DX003 (sc), vehicle: Klucel (hydroxypropylcellulose) (HPC)
[7] = dose: 600.0 mg/kg/injection, schedule: Q04DX003 (sc), vehicle: Klucel (hydroxypropylcellulose) (HPC)
[8] = dose: 1200.0 mg/kg/injection, schedule: Q04DX003 (sc), vehicle: Klucel (hydroxypropylcellulose) (HPC)
[9] = dose: 4.0 mg/kg/injection, schedule: Q04DX003 (sc), vehicle: saline with Tween-80

C=C(OP(=O)(OC)OC)Sc1ccccc1C
T/C (dose: 100.0 micrograms/kg/injection, schedule: Q04DX003 (sc), vehicle: Klucel (hydroxypropylcellulose) (HPC)): 68 % of control
T/C (dose: 200.0 micrograms/kg/injection, schedule: Q04DX003 (sc), vehicle: Klucel (hydroxypropylcellulose) (HPC)): 68 % of control
T/C (dose: 400.0 micrograms/kg/injection, schedule: Q04DX003 (sc), vehicle: Klucel (hydroxypropylcellulose) (HPC)): 67 % of control
T/C (dose: 800.0 micrograms/kg/injection, schedule: Q04DX003 (sc), vehicle: Klucel (hydroxypropylcellulose) (HPC)): 79 % of control

CCCCCCCCCCCCCCCC(=O)OCC1OC(n2ccc(N)nc2=O)C(O)C1O (centres undefined)
T/C (dose: 18.75 mg/kg/injection, schedule: Q04DX003 (sc), vehicle: saline with Tween-80): 55 % of control
T/C (dose: 37.5 mg/kg/injection, schedule: Q04DX003 (sc), vehicle: saline with Tween-80): 43 % of control and 60 % of control
T/C [1]: 70 % of control

CN(C=O)C(C(=O)Nc1cccc2c(OC(=O)C(N(C)C=O)(N(C)C=O)N(C)C=O)c(N=Nc3ccc(S(=O)(=O)Nc4nccs4)cc3)cc(N=Nc3ccc(S(=O)(=O)Nc4nccs4)cc3)c12)(N(C)C=O)N(C)C=O (tested in a mixture with another compound)
T/C [2]: 109 % of control
T/C [3]: 71 % of control
T/C [4]: 120 % of control
T/C [5]: 95 % of control

CSc1ncnc2c1ncn2C1OC(CO)C(O)C1O (centres undefined)
T/C (dose: 75.0 mg/kg/injection, schedule: Q04DX003 (sc), vehicle: saline + alcohol): 166 % of control
T/C (dose: 150.0 mg/kg/injection, schedule: Q04DX003 (sc), vehicle: saline + alcohol): 22 % of control

CC(C)(C)C1CCCCC1
T/C [6]: 94 % of control
T/C [7]: 68 % of control
T/C [8]: 59 % of control
T/C (dose: 2400.0 mg/kg/injection, schedule: Q04DX003 (sc), vehicle: Klucel (hydroxypropylcellulose) (HPC)): 46 % of control

CCCCCCCCCCCCSC1=C(Cl)C(=O)C(OC)=C(OC)C1=O
T/C (dose: 75.0 mg/kg/injection, schedule: Q04DX003 (sc), vehicle: saline with Tween-80): 71 % of control
T/C [2]: 81 % of control

COc1cc(C(C)(C)C)cc(OC)c1C(O)(c1c(OC)cc(C(C)(C)C)cc1OC)c1c(OC)cc(C(C)(C)C)cc1OC
T/C (dose: 100.0 mg/kg/injection, schedule: Q04DX003 (sc), vehicle: saline with Tween-80): 91 % of control
T/C [1]: 68 % of control
T/C (dose: 400.0 mg/kg/injection, schedule: Q04DX003 (sc), vehicle: saline with Tween-80): 98 % of control
T/C (dose: 800.0 mg/kg/injection, schedule: Q04DX003 (sc), vehicle: saline with Tween-80): 86 % of control

O=c1[nH]cnc2c1ccn2C1OC(CO)C(O)C1O (centres undefined)
T/C (dose: 12.5 mg/kg/injection, schedule: Q04DX003 (sc), vehicle: saline): 88 % of control
T/C (dose: 50.0 mg/kg/injection, schedule: Q04DX003 (sc), vehicle: saline): 47 % of control

O=C(NP(=O)(N1CC1)N1CC1)c1cc(I)ccc1I
T/C (dose: 50.0 mg/kg/injection, schedule: Q01DX010 (sc), vehicle: saline): 73 % of control
T/C (dose: 100.0 mg/kg/injection, schedule: Q01DX010 (sc), vehicle: saline): 54 % of control

O=NN(CCCl)C(=O)Oc1cc(Cl)c(Cl)cc1Cl
T/C [6]: 104 % of control
T/C [7]: 53 % of control
T/C [8]: 29 % of control

C(=N/NC1=NCCN1)/c1c2ccccc2c(/C=N\NC2=NCCN2)c2ccccc12
T/C (dose: 18.75 mg/kg/injection, schedule: Q04DX003 (sc), vehicle: suspension in saline): 117 % of control
T/C (dose: 75.0 mg/kg/injection, schedule: Q04DX003 (sc), vehicle: suspension in saline): 72 % of control
T/C (dose: 150.0 mg/kg/injection, schedule: Q04DX003 (sc), vehicle: suspension in saline): 49 % of control

CCCCCCCCCCCC(=O)NC1CC(O[C@H]2C[C@](O)(C(=O)CO)Cc3c(O)c4c(c(O)c32)C(=O)c2c(OC)cccc2C4=O)OC(C)C1O (some centres undefined)
T/C (dose: 300.0 mg/kg/injection, schedule: Q04DX003 (sc), vehicle: water): 5 % of control
T/C (dose: 600.0 mg/kg/injection, schedule: Q04DX003 (sc), vehicle: water): 76 % of control
T/C (dose: 1200.0 mg/kg/injection, schedule: Q04DX003 (sc), vehicle: water): 55 % of control
T/C (dose: 2400.0 mg/kg/injection, schedule: Q04DX003 (sc), vehicle: water): 118 % of control

[CH3][Sn]([CH3])([Cl])[S]CCN
T/C (dose: 18.75 mg/kg/injection, schedule: Q04DX003 (sc), vehicle: saline): 62 % of control
T/C (dose: 37.5 mg/kg/injection, schedule: Q04DX003 (sc), vehicle: saline): 95 % of control
T/C (dose: 75.0 mg/kg/injection, schedule: Q04DX003 (sc), vehicle: saline): 82 % of control

NC(=S)N/N=C/c1ccc(OC(=O)COc2ccccc2)cn1
T/C [3]: 77 % of control
T/C [4]: 73 % of control
T/C [5]: 37 % of control

CCCCC1CCCCCCc2[nH]c(/C=C3\N=C(c4ccc[nH]4)C=C3OC)cc21 (centres undefined)
T/C [9]: 61 % of control
T/C (dose: 8.0 mg/kg/injection, schedule: Q04DX003 (sc), vehicle: saline with Tween-80): 66 % of control
T/C (dose: 16.0 mg/kg/injection, schedule: Q04DX003 (sc), vehicle: saline with Tween-80): 55 % of control

CC(C)NCC(O)COc1ccc(O)c(O)c1 (centres undefined)
T/C (dose: 100.0 mg/kg/injection, schedule: Q04DX003 (sc), vehicle: saline): 104 % of control
T/C (dose: 200.0 mg/kg/injection, schedule: Q04DX003 (sc), vehicle: saline): 84 % of control
T/C (dose: 400.0 mg/kg/injection, schedule: Q04DX003 (sc), vehicle: saline): 114 % of control
T/C (dose: 800.0 mg/kg/injection, schedule: Q04DX003 (sc), vehicle: saline): 54 % of control

COC(C(=O)C(O)C(C)O)C1Cc2cc3cc(OC4CC(OC(C)=O)C(OC5CC(O)C(OC)C(C)O5)C(C)O4)cc(O)c3c(O)c2C(=O)C1OC1CC(OC2CC(OC3CC(C)(O)C(OC(=O)C(C)C)C(C)O3)C(O)C(C)O2)C(O)C(C)O1 (centres undefined)
T/C (dose: 1.0 mg/kg/injection, schedule: Q04DX003 (sc), vehicle: saline with Tween-80): 77 % of control
T/C (dose: 2.0 mg/kg/injection, schedule: Q04DX003 (sc), vehicle: saline with Tween-80): 58 % of control
T/C (dose: 4.0 mg/kg/injection, schedule: Q01DX010 (sc), vehicle: saline with Tween-80): 12 % of control and 30 % of control
T/C [9]: 50 % of control

O=S(=O)(SC(S(=O)(=O)c1ccccc1)S(=O)(=O)c1ccccc1)c1ccccc1
T/C (dose: 100.0 mg/kg/injection, schedule: Q04DX003 (sc), vehicle: Klucel (hydroxypropylcellulose) (HPC)): 115 % of control
T/C (dose: 400.0 mg/kg/injection, schedule: Q04DX003 (sc), vehicle: Klucel (hydroxypropylcellulose) (HPC)): 69 % of control
T/C [7]: 63 % of control
T/C (dose: 800.0 mg/kg/injection, schedule: Q04DX003 (sc), vehicle: Klucel (hydroxypropylcellulose) (HPC)): 77 % of control
T/C [8]: 65 % of control

Cc1c(N)nc(C(CC(N)=O)NCC(N)C(N)=O)nc1C(=O)NC(C(=O)NC(C)C(O)CC(=O)NC(C(=O)NC(OC1OC(C)C(N)C(O)C1O)C(O)c1nc(-c2nc(C(=O)NCCCC(N)CC(=O)NCCCNCCCCN)cs2)cs1)C(C)O)C(OC1OC(CO)C(O)C(O)C1OC1OC(CO)C(O)C(OC(N)=O)C1O)c1cnc[nH]1 (centres undefined)
T/C (dose: 16.0 mg/kg/injection, schedule: Q04DX003 (sc), vehicle: saline): 73 % of control

CC(=S)NC(O)C(=O)c1ccccc1 (centres undefined)
T/C [2]: 109 % of control
T/C [4]: 63 % of control
T/C [5]: 99 % of control

C[n+]1ccc2cc(N)c3c4ccccc4sc3c2c1
T/C (dose: 6.25 mg/kg/injection, schedule: Q04DX003 (sc), vehicle: saline with Tween-80): 67 % of control
T/C (dose: 12.5 mg/kg/injection, schedule: Q04DX003 (sc), vehicle: saline with Tween-80): 93 % of control
T/C (dose: 25.0 mg/kg/injection, schedule: Q04DX003 (sc), vehicle: saline with Tween-80): 70 % of control
T/C (dose: 50.0 mg/kg/injection, schedule: Q04DX003 (sc), vehicle: saline with Tween-80): 74 % of control

CCCCCCCC(=O)N/N=C(\CO)[C@]1(O)Cc2c(O)c3c(c(O)c2[C@@H](OC2CC(N)C(O)C(C)O2)C1)C(=O)c1c(OC)cccc1C3=O (some centres undefined)
T/C (dose: 12.5 mg/kg/injection, schedule: Q01DX010 (sc), vehicle: water): 40 % of control
T/C (dose: 25.0 mg/kg/injection, schedule: Q01DX010 (sc), vehicle: water): 63 % of control
T/C (dose: 50.0 mg/kg/injection, schedule: Q01DX010 (sc), vehicle: water): 24 % of control

O=C(C/C(=N\C(=S)Nc1cc(C(F)(F)F)ccc1Cl)NO)N1CCCC1
T/C [3]: 70 % of control
T/C [4]: 120 % of control
T/C [5]: 104 % of control
T/C (dose: 2400.0 mg/kg/injection, schedule: Q04DX003 (sc), vehicle: saline with Tween-80): 106 % of control
